# Experimental data published in patent US9133203B2, “Pyrroloquinazoline compounds” (OREGON HEALTH & SCIENCE UNIVERSITY, priority 2013, dated 2015).
# Tests used:
# [1] = Solubility observations; type: physicochemical; settings: high-quality 13C NMR spectra could not be obtained
# [2] = tested on: MDA-MB-231; experiment: MTT antiproliferation assay in MDA-MB-231 cells; type: cell-based; settings: Homo sapiens, concentration that limits growth by 50%, 72 hour incubation, mean ± SD, at least two experiments in duplicate
# Procedure: (§1) The newly synthesized selectively mono-N-acylated compounds of series 4 and series 7 were evaluated as potential anticancer agents because compound 1 had been previously shown to display anticancer activity by inhibiting DHFR (Kuyper L F et al, J Med Chem 39, 892-903 (1996); incorporated by reference herein). Compounds of series 2 were not evaluated due to their poor solubility in DMSO. Two triple negative breast cancer (TN BC) cell lines (MDA-MB-231 and MDAMB-468) were selected to evaluate potential anticancer activity of the compounds of series 4 and series 7 by an MTT assay (Li B X et al, Bioorg Med Chem 20, 6811-6820 (2012); incorporated by reference herein.) TNBC represents a unique subtype of breast cancer clinically characterized by the lack of expression of estrogen receptor (ER), progesterone receptor (PR) and human epidermal growth factor receptor 2 (HER2). Subjects with triple negative breast cancer often have a poor prognosis (Kang S P et al, Curr Opin Obstet Gynecol 20, 40-46 (2008) and The Cancer Genome Atlas Network Nature, 490, 61-70 (2012); both of which are incorporated by reference herein). Current treatment options for TNBC are limited and novel agents are needed (Shastry M and Yardley D A, Curr Opin Obstet Gynecol 25, 40-48 (2013); incorporated by reference herein).
# (§2) GI50 values represent the concentration that limits the growth of the cancer cells by 50% during a 72 hour incubation period. These are presented as mean±standard deviation of the mean of at least two independent experiments performed in duplicate.
# (§3) TMTT assays for MDA-MB-231, MDA-MB-468 and HMEC were performed as described in Li et al, 2012 supra.
# [3] = tested on: MDA-MB-468; experiment: MTT antiproliferation assay in MDA-MB-468 cells; type: cell-based; settings: Homo sapiens, concentration that limits growth by 50%, 72 hour incubation, mean ± SD, at least two experiments in duplicate
# Procedure: as §1, §2, §3
# [4] = Stability in HPLC mobile phase containing TFA; type: physicochemical; settings: HPLC mobile phase water/acetonitrile with 0.1% TFA
# Procedure: The solvents used for each reaction were purified from the Glass Contout solvent purification system. Melting points were determined in capillary tubes using MeI-Temp and are uncorrected. NMR spectra were recorded at 400 MHz (^1H NMR) and 100 MHz (^13C NMR). Chemical shifts (δ) are reported in ppm relative to the residual CHCl3 (1H, 7.26 ppm, 13C, 77.0 ppm) or DMSO (1H, 2.50 ppm, 13C, 39.5 ppm). The following abbreviations were used to describe the splitting pattern of individual peaks if applicable: s=singlet, d=doublet, t=triplet, q=quartet, m=multiplet. The coupling constants (J) were reported in Hertz (Hz). Silica gel flash chromatography was performed using 230-400 mesh silica gel (EMD). The mass spectra were obtained from an LTQ Orbitrap Discovery mass spectrometer (Thermo Scientific, West Palm Beach, Fla.) with electrospray operated either in positive or negative mode. All final compounds were confirmed to be of >95% purity based on HPLC (Waters) analysis using an XBridge C18 column (4.6×150 mm) and detected at 254 nm (due to the poor solubility, compound 2a-2d were not evaluated by HPLC). The mobile phases for HPLC are water and acetonitrile, both of which contain 0.1% TFA (for compounds 2e, 4e, and 7e which contain a TBS group, 0.01% TFA was used due to instability of these compounds in 0.1% TFA).
# [5] = tested on: normal human mammary epithelial cells (HMEC); experiment: MTT viability assay in normal human mammary epithelial cells; type: cell-based
# Procedure: FIG. 2 is a plot showing the effect of compound 7f on normal human mammary epithelial cells (HMEC.) HMEC were treated with the indicated concentrations of doxorubicin or 7f for 24 or 72 hours as indicated. Cells treated for 24 hours were further incubated in drug free media for 48 hours. The number of viable cells was determined by an MTT assay.
# as §3
# [6] = target: T1, human DHFR (Homo sapiens, UniProt P00374); experiment: In vitro human DHFR inhibition; type: biochemical; settings: DHFR assay kit, NADPH 60 μM, DHF 50 μM
# T1 construct: purchased Sigma
# T1 sequence (P00374 1-187): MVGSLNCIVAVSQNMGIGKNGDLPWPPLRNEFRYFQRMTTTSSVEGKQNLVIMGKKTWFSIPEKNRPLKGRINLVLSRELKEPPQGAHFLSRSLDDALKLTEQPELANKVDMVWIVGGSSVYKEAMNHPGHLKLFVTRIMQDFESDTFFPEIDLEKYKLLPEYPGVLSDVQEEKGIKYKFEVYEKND
# Procedure: The human DHFR assay was done with DHFR assay kit (Sigma) following the manufacturer's instructions with minor modifications. Different concentrations of a test compound were incubated with human DHFR (0.1875 mU) and NADPH (60 μM) in the 1× assay buffer for 2 min at room temperature. Then DHF (50 μM) was added to initiate the reduction reaction, which was immediately monitored by absorbance at 340 nm every 12 s for 3 min. The final reaction volume was 100 μL and the final DMSO concentration was 1%. The reaction velocities were calculated as the slopes from the absorbance-time curves.
# [7] = tested on: CREB-mediated gene transcription; experiment: CREB reporter assay (CRE-RLuc) in HEK 293T cells; type: cell-based, human; settings: forskolin 10 μM
# Procedure: FIG. 4 is a plot showing the activity of compound 7f on CREB mediated gene transcription in HEK 293T cells. HEK 293T cells were transfected with a CREB renilla luciferase reporter (CRE-RLuc). Then the cells were treated with increasing concentrations of 7f for 30 min before the addition of forskolin at a final concentration of 10 μM. The cells were further incubated for 5 hours before cell lysis and renilla luciferase activity measurement. The renilla luciferase activity was normalized to the protein concentration of the cell lysates and was expressed as relative luciferase unit (RLU)/μg of proteins.
# Inhibition of CREB mediated transcription in HEK 293T cells by a CREB reporter assay was performed as described in Li and Xiao, 2009 supra.
# [8] = tested on: LMNA/C; experiment: Chemoproteomic pulldown with probe 10 and Western blot, LMNA/C; type: binding, human; settings: MDA-MB-468 cells, photocrosslinking, streptavidin pulldown, Western blot
# Procedure: (§4) FIG. 5A is a schematic diagram of chemoproteomics experiments described in Example 38 below. MDA-MB-468 cells were treated with probe 10 with or without compound 7f. Then the cells were irradiated by UV followed by cell lysis. The lysates were clicked with a biotin-N3. The biotinylated proteins were pulled down with streptavidin beads. The bound proteins were trypsin-digested for LC-MS/MS analysis or eluted for Western analysis.
# (§5) FIG. 5B is an image of a Western blot showing that 7f binds LMNA and LMNB1. The proteins from streptavidin-pulldown prepared as shown in FIG. 5A were subjected to Western blot with antibodies specific for the proteins indicated by the arrows to the right of the figure.
# (§6) Unbiased chemical proteomics experiments involving photocrosslinking MDA-MB-468 cells treated with probe compound 10, clicking with a biotin-azide (biotin-N3), streptavidin pulldown and mass spectroscopic analyses identified nuclear lamins as the molecular targets of 7f. Nuclear lamins are type V intermediate filament proteins. In humans, there are three lamin genes (LMNA, LMNB1 and LMNB2) encoding four major proteins: LMNA, LMNC, LMNB1 and LMNB2. To further confirm that lamins are the targets, the biotinylated proteins prepared as shown in FIG. 5A were pulled down and analyzed by Western blot with individual antibodies (FIG. 5B).
# [9] = target: T2, LMNB1 (Homo sapiens, UniProt P20700); experiment: Chemoproteomic pulldown with probe 10 and Western blot, LMNB1; type: binding; settings: MDA-MB-468 cells, photocrosslinking, streptavidin pulldown, Western blot
# T2 construct: endogenous in cells; host or cells: MDA-MB-468
# T2 sequence (P20700 1-586): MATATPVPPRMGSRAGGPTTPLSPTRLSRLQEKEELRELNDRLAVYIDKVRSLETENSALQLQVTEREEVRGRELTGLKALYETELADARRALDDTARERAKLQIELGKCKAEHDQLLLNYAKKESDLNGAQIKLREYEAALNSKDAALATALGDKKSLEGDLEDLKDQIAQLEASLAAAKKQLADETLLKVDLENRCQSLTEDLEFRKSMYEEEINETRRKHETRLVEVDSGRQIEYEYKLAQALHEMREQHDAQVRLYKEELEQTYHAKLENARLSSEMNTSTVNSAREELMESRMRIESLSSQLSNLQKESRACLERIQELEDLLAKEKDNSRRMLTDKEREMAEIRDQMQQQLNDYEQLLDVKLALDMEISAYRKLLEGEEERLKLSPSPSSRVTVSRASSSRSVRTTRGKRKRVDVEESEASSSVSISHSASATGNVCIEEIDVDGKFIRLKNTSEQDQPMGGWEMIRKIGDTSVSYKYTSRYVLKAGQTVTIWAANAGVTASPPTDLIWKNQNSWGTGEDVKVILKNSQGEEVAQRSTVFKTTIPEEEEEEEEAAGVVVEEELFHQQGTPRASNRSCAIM
# Procedure: as §4, §5, §6
melting point [°C],GI50 [2] [µM],GI50 [3] [µM],Structure (SMILES),other results
210 to 212,,,CCC(=O)n1ccc2c3c(N)nc(N)nc3ccc21 [Compound 2b],solubility (13C NMR sample) [1]: so limited
228 to 230,21.4 ± 9.86,24.4 ± 3.33,CCC(=O)Nc1nc(N)c2c(ccc3[nH]ccc32)n1 [Compound 7b],
234 to 236,1.6,0.44,Nc1nc(NC(=O)c2ccc3ccccc3c2)nc2ccc3[nH]ccc3c12 [Compound 7f],concentration up to which not toxic to normal HMEC ([5]; 72-h incubation): ≥ 5000 nM; concentration up to which human DHFR is not inhibited [6]: ≥ 10 µM; concentration up to which CREB-mediated gene transcription is not inhibited [7]: ≥ 10 µM; competition of probe 10 pulldown of LMNA/C [8]: competed; competition of probe 10 pulldown of LMNB1 [9]: competed
226 to 228,18.7 ± 2.24,20.3 ± 7.4,CCC(=O)Nc1nc(N)nc2ccc3[nH]ccc3c12 [Compound 4b],
236 to 238,32.6 ± 14,56.5 ± 18,CC(=O)Nc1nc(N)nc2ccc3[nH]ccc3c12 [Compound 4a],
288 to 290,39.7 ± 22.5,29.8 ± 8.41,CC(C)C(=O)Nc1nc(N)c2c(ccc3[nH]ccc32)n1 [Compound 7d],
188 to 190,,,Nc1nc(N)c2c(ccc3c2ccn3C(=O)c2ccc3ccccc3c2)n1 [Compound 2f],
,4.13 ± 0.54,3.34 ± 0.93,"Nc1nc(N)c2c(ccc3[nH]ccc32)n1 [Compound 1, 7H-Pyrrolo[3,2-f]quinazoline-1,3-diamine, reference compound]",
262 to 264,25.5 ± 9.93,27.4 ± 4.52,CCCC(=O)Nc1nc(N)c2c(ccc3[nH]ccc32)n1 [Compound 7c],
260 to 262,27.2 ± 11.4,53.5 ± 29.5,CC(=O)Nc1nc(N)c2c(ccc3[nH]ccc32)n1 [Compound 7a],
196 to 198,,,CCCC(=O)n1ccc2c3c(N)nc(N)nc3ccc21 [Compound 2c],solubility (13C NMR sample) [1]: so limited
,> 100,> 100,CC(C)C(=O)Nc1nc(N)nc2ccc3[nH]ccc3c12 [Compound 4d],
200 to 202,,,CC(C)C(=O)n1ccc2c3c(N)nc(N)nc3ccc21 [Compound 2d],
,,0.12,"COc1cccc2c1C(=O)c1c(O)c3c(c(O)c1C2=O)C[C@@](O)(C(=O)CO)C[C@@H]3O[C@H]1C[C@H](N)[C@H](O)[C@H](C)O1 [Dox, doxorubicin, reference compound]",concentration toxic to normal HMEC cells ([5]; toxic at a concentration as low as): ≤ 100 nM
202 to 204,,,CC(=O)n1ccc2c3c(N)nc(N)nc3ccc21 [Compound 2a],solubility (13C NMR sample) [1]: so limited
224 to 226,26.9 ± 12.9,26.3 ± 7.4,CCCC(=O)Nc1nc(N)nc2ccc3[nH]ccc3c12 [Compound 4c],
,8.46 ± 2.56,8.91 ± 1.28,Nc1nc(NC(=O)c2ccc3ccccc3c2)c2c(ccc3[nH]ccc32)n1 [Compound 4f],

Structure (SMILES),melting point [°C],GI50 [2] [µM],GI50 [3] [µM],other results
CC(C)(C)[Si](C)(C)OCCCCC(=O)Nc1nc(N)c2c(ccc3[nH]ccc32)n1 [Compound 7e],140 to 142,2.43 ± 0.13,2.24 ± 0.4,stability in 0.1% TFA [4]: instability
"CCCCOc1cc2ccccc2cc1C(=O)Nc1nc(N)c2c(ccc3[nH]ccc32)n1 [Compound 7g, N-(1-Amino-7H-pyrrolo[3,2-f]quinazolin-3-yl)-3-butoxy-2-naphthamide]",,0.65 ± 0.43,0.1 ± 0.079,
CC(C)(C)[Si](C)(C)OCCCCC(=O)n1ccc2c3c(N)nc(N)nc3ccc21 [Compound 2e],173 to 175,,,stability in 0.1% TFA [4]: instability
CC(C)(C)[Si](C)(C)OCCCCC(=O)Nc1nc(N)nc2ccc3[nH]ccc3c12 [Compound 4e],172 to 174,15.6 ± 7.66,11.1 ± 1.73,stability in 0.1% TFA [4]: instability
